Values joined by “and” are separate entries in the source; they are usually repeats but may differ in a detail not shown here. Equal values may be shown once. Marks after values point to notes of the source that are not given here.
Key:
Assay type in all cases: cell-based
HepG2 cells [1] = assay: AFP secretory volume of HepG2 cells; details: for AFP: HepG2 cells
A549 cells [2] = assay: Differentiation index: CEA secretory volume of A549 cells; details: A549 culture supernatant, 10 ug/ml, 3 d
Description: 1.6 Detection of Differentiation Index The cultured A549 cells are randomly divided into 6 10 μg/ml drug groups, cell control groups, solvent control groups (DMSO and ethanol) and 10 μg/ml fenretinide control groups (11 in total). The control groups and drug groups are cultured for 3 days to collect respective 3 tubes of cell culture solutions which are centrifugated at a speed of 4000 r/min for 5 min to take the supernatant and detect the CEA content of the kit by using enzyme kinetics and CEA detection.

A549 lung cancer cells = assay: MTT cell growth and proliferation experiment, A549; design: key to Inhibition Rate: (control OD570 − test OD570)/control OD570, as fraction
Summary of the method: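 Cells in DMEM/10% calf serum were treated with retinoic acid derivatives at 1, 5 and 10 ug/ml (DMSO <0.1%) for 3 d, then with MTT for 4 h at 37° C. Read-out was OD570 after DMSO solubilisation, giving % growth inhibition versus control wells. A time-course at 10 umol/L ran for 1, 2, 3 and 7 days.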

HepG2 cells [3] = assay: Cell cycle and apoptosis by flow cytometry, HepG2; details: for Apoptosis Rate (%) / G0-G1 (%) / G2-M (%) / S %: HepG2, flow cytometry
HepG2 cells [4] = assay: γ-GT specific activity of HepG2 cells
A549 cells [5] = assay: Cell cycle and apoptosis by flow cytometry, A549; details: A549, 10 μg/ml, 3 days
Description: 1.4 Detection of Cell Cycle and Apoptosis by Flow Cytometry A549 cells in the logarithmic phase are collected, regulated with the concentrations thereof to 8×10^7/L, inoculated in a 6-hole board, cultured in an incubator (37° C. and 5% CO2). After the cells are adhered, the culture solution is discarded, and a culture solution having drugs with the corresponding concentrations is added and divided into 10 μg/ml drug groups, 10 μg/ml fenretinide groups, cell control groups, solvent control groups (1‰ DMSO and anhydrous ethanol) (11 in total). After 3 days, each group of cells is normally digested, collected, blown into single cell suspension, washed by cold PBS twice, and re-suspend by 10 μl PBS. Fixing and member breaking agents and a PI staining solution are added according to the Coulter DNA detection kit and reacted with one another at the room temperature and out of light for 30 min for machine detection. Each sample detects 10000 cells and repeats for three times, and the data are analyzed by Analysis software for the ratio during the G0-G1, S and G2-M periods and the ratio of apoptotic cells.

K562 cells = assay: Cell cycle analysis by flow cytometer, K562; design: S %: dose or concentration left out as unconfirmed; details: 72 h
Summary of the method: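 NB4 and K562 cells in RPMI1640 with 10% FBS were exposed to compounds […] for 72 h. Then they were fixed in 70% cold ethanol and stained with 5 ug/ml propidium iodide for cell-cycle profiling by flow cytometry.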

[6] = A549, MTT time gradient, 10 ug/ml, 1 d
[7] = A549, MTT time gradient, 10 ug/ml, 1 d, fraction
[8] = A549, MTT time gradient, 10 ug/ml, 2 d
[9] = A549, MTT time gradient, 10 ug/ml, 2 d, fraction
[10] = A549, MTT time gradient, 10 ug/ml, 3 d
[11] = A549, MTT time gradient, 10 ug/ml, 3 d, fraction
[12] = A549, MTT time gradient, 10 ug/ml, 7 d
[13] = A549, MTT time gradient, 10 ug/ml, 7 d, fraction

CC1=C(/C=C/C(C)=C/C=C/C(C)=C/C(=O)Nc2ccc(O)cc2)C(C)(C)CCC1 [Fenretinide, reference compound]
AFP (HepG2 cells [1]; DMSO): 15.1 µg/L | AFP (HepG2 cells [1]; ethanol): 14.9 µg/L | CEA (A549 cells [2]; DMSO): 4.5 µg/L | CEA (A549 cells [2]; ethanol): 4.3 µg/L | OD Value (x ± s) (A549 lung cancer cells; A549, MTT time gradient, in DMSO, 1 d, concentration not given): 0.883 ± 0.062 | Inhibition Rate (A549 lung cancer cells; A549, MTT time gradient, in DMSO, 1 d, concentration not given, fraction): 0.037 | OD Value (x ± s) (A549 lung cancer cells; A549, MTT time gradient, in DMSO, 2 d, concentration not given): 1.360 ± 0.052 | Inhibition Rate (A549 lung cancer cells; A549, MTT time gradient, in DMSO, 2 d, concentration not given, fraction): 0.070 | OD Value (x ± s) (A549 lung cancer cells; A549, MTT time gradient, in DMSO, 3 d, concentration not given): 0.845 ± 0.034 | Inhibition Rate (A549 lung cancer cells; A549, MTT time gradient, in DMSO, 3 d, concentration not given, fraction): 0.089 | OD Value (x ± s) (A549 lung cancer cells; A549, MTT time gradient, in DMSO, 7 d, concentration not given): 1.835 ± 0.030 | Inhibition Rate (A549 lung cancer cells; A549, MTT time gradient, in DMSO, 7 d, concentration not given, fraction): 0.115 | OD Value (x ± s) (A549 lung cancer cells; A549, MTT time gradient, in ethanol, 1 d, concentration not given): 0.887 ± 0.057 | Inhibition Rate (A549 lung cancer cells; A549, MTT time gradient, in ethanol, 1 d, concentration not given, fraction): 0.033 | OD Value (x ± s) (A549 lung cancer cells; A549, MTT time gradient, in ethanol, 2 d, concentration not given): 1.333 ± 0.046 | Inhibition Rate (A549 lung cancer cells; A549, MTT time gradient, in ethanol, 2 d, concentration not given, fraction): 0.089 | OD Value (x ± s) (A549 lung cancer cells; A549, MTT time gradient, in ethanol, 3 d, concentration not given): 0.836 ± 0.034 | Inhibition Rate (A549 lung cancer cells; A549, MTT time gradient, in ethanol, 3 d, concentration not given, fraction): 0.099 | OD Value (x ± s) (A549 lung cancer cells; A549, MTT time gradient, in ethanol, 7 d, concentration not given): 1.851 ± 0.030 | Inhibition Rate (A549 lung cancer cells; A549, MTT time gradient, in ethanol, 7 d, concentration not given, fraction): 0.108 | OD Value (x ± s) (A549 lung cancer cells; A549, MTT, 3 d, Table 1 control drug in DMSO, concentration not given): 1.724 ± 0.080 | Inhibition Rate (A549 lung cancer cells; A549, MTT, 3 d, Table 1 control drug in DMSO, concentration not given, fraction): 0.076 | OD Value (x ± s) (A549 lung cancer cells; A549, MTT, 3 d, Table 1 control drug in ethanol, concentration not given): 1.710 ± 0.056 | Inhibition Rate (A549 lung cancer cells; A549, MTT, 3 d, Table 1 control drug in ethanol, concentration not given, fraction): 0.083 | Apoptosis Rate (%) (HepG2 cells [3]; in DMSO): 5.71% | G0-G1 (%) (HepG2 cells [3]; in DMSO): 67.3% | G2-M (%) (HepG2 cells [3]; in DMSO): 7.64% | S % (HepG2 cells [3]; in DMSO): 19.8% | Apoptosis Rate (%) (HepG2 cells [3]; in ethanol): 10.6% | G0-G1 (%) (HepG2 cells [3]; in ethanol): 60.0% | G2-M (%) (HepG2 cells [3]; in ethanol): 5.69% | S % (HepG2 cells [3]; in ethanol): 24.1% | γ-GT (HepG2 cells [4]; DMSO): 66.6 ± 0.5 U/L | γ-GT (HepG2 cells [4]; ethanol): 61.0 ± 1.0 U/L | Apoptosis Rate (%) (A549 cells [5]; in DMSO): 29.3% | G0-G1 (%) (A549 cells [5]; in DMSO): 47.2% | G2-M (%) (A549 cells [5]; in DMSO): 2.09% | S % (A549 cells [5]; in DMSO): 22.2% | Apoptosis Rate (%) (A549 cells [5]; in ethanol): 14.0% | G0-G1 (%) (A549 cells [5]; in ethanol): 59.3% | G2-M (%) (A549 cells [5]; in ethanol): 2.63% | S % (A549 cells [5]; in ethanol): 24.5% | G1 % (K562 cells): 33.5% | G2 % (K562 cells): 9.0% | S % (K562 cells): 57.5%

CC1=C(/C=C/C(C)=C/C=C/C(C)=C/C(=O)Oc2ccc(N)cc2C(F)(F)F)C(C)(C)CCC1 [Example 4a-02, (4-amino-2-trifluoromethylphenyl)-(all-trans)-3,7-dimethyl-9-(2,6,6-trimethyl-1-cyclohexen-1-yl)-2,4,6,8-nonatetraenoate]
effects on AFP secretory volume (statistics, in words) (HepG2 cells [1]; HepG2, compared with the control groups, P less than 0.05): meaningful in statistics | AFP (HepG2 cells [1]; ethanol): 10.4* ug/L | CEA (A549 cells [2]; DMSO): 3.1 µg/L | OD Value (x ± s) (A549 lung cancer cells; A549, MTT OD 570 nm, 1 ug/ml, 3 d, solvent DMSO (D)): 1.644 ± 0.272 and 2.020 ± 0.317 | OD Value (x ± s) (A549 lung cancer cells; A549, MTT OD 570 nm, 5 ug/ml, 3 d, solvent DMSO (D)): 1.618 ± 0.087 and 1.979 ± 0.138 | OD Value (x ± s) (A549 lung cancer cells; A549, MTT OD 570 nm, 10 ug/ml, 3 d, solvent DMSO (D)): 1.808 ± 0.143 | OD Value (x ± s) (A549 lung cancer cells; [6]): 0.815 ± 0.045 | Inhibition Rate (A549 lung cancer cells; [7]): 0.111 | OD Value (x ± s) (A549 lung cancer cells; [8]): 1.176 ± 0.021 | Inhibition Rate (A549 lung cancer cells; [9]): 0.196 | OD Value (x ± s) (A549 lung cancer cells; [10]): 0.720 ± 0.025 | Inhibition Rate (A549 lung cancer cells; [11]): 0.223 | OD Value (x ± s) (A549 lung cancer cells; [12]): 1.144 ± 0.150 | Inhibition Rate (A549 lung cancer cells; [13]): 0.448 | effect on the apoptosis of HepG2 cells (ranking in words) (HepG2 cells [3]; HepG2): most greatly effects on the apoptosis of HepG2 cells | Apoptosis Rate (%) (HepG2 cells [3]): 38.1* % | G0-G1 (%) (HepG2 cells [3]): 30.9% | G2-M (%) (HepG2 cells [3]): 3.20% | S % (HepG2 cells [3]): 28.5% | γ-GT (HepG2 cells [4]; ethanol): 32.6 ± 1.5 U/L | Apoptosis Rate (%) (A549 cells [5]; PI flow cytometry): 23.9% | G0-G1 (%) (A549 cells [5]; PI flow cytometry): 44.1% | G2-M (%) (A549 cells [5]; PI flow cytometry): 1.90% | S % (A549 cells [5]; PI flow cytometry): 29.4% | G1 % (K562 cells): 33.1% | G2 % (K562 cells): 11.5% | S % (K562 cells): 55.4%

CC1=C(/C=C/C(C)=C/C=C/C(C)=C/C(=O)Oc2ccccc2C(F)(F)F)C(C)(C)CCC1 [Example 2a-03, (2-trifluoromethylphenyl)-(all-trans)-3,7-dimethyl-9-(2,6,6-trimethyl-1-cyclohexen-1-yl)-2,4,6,8-nonatetraenoate]
AFP (HepG2 cells [1]; DMSO): 14.7 µg/L | CEA (A549 cells [2]; ethanol): 3.9 µg/L | OD Value (x ± s) (A549 lung cancer cells; A549, MTT OD 570 nm, 1 ug/ml, 3 d, solvent ethanol): 1.639 ± 0.115 | OD Value (x ± s) (A549 lung cancer cells; A549, MTT OD 570 nm, 5 ug/ml, 3 d, solvent ethanol): 1.555 ± 0.162 | OD Value (x ± s) (A549 lung cancer cells; A549, MTT OD 570 nm, 10 ug/ml, 3 d, solvent ethanol): 1.382 ± 0.133 | OD Value (x ± s) (A549 lung cancer cells; [6]): 0.902 ± 0.055 | Inhibition Rate (A549 lung cancer cells; [7]): 0.016 | OD Value (x ± s) (A549 lung cancer cells; [8]): 1.066 ± 0.015 | Inhibition Rate (A549 lung cancer cells; [9]): 0.271 | OD Value (x ± s) (A549 lung cancer cells; [10]): 0.635 ± 0.033 | Inhibition Rate (A549 lung cancer cells; [11]): 0.315 | OD Value (x ± s) (A549 lung cancer cells; [12]): 1.393 ± 0.043 | Inhibition Rate (A549 lung cancer cells; [13]): 0.328 | Inhibition Rate (A549 lung cancer cells; A549, MTT, 1 ug/ml, 3 d, solvent ethanol, given as fraction): 0.122 | Inhibition Rate (A549 lung cancer cells; A549, MTT, 5 ug/ml, 3 d, solvent ethanol, given as fraction): 0.167 | Inhibition Rate (A549 lung cancer cells; A549, MTT, 10 ug/ml, 3 d, solvent ethanol, given as fraction): 0.260 | Apoptosis Rate (%) (HepG2 cells [3]): 16.3* % | G0-G1 (%) (HepG2 cells [3]): 57.3% | G2-M (%) (HepG2 cells [3]): 3.40% | S % (HepG2 cells [3]): 25.5% | γ-GT (HepG2 cells [4]; DMSO): 60.6 ± 0.5 U/L | Apoptosis Rate (%) (A549 cells [5]; PI flow cytometry): 28.9% | G0-G1 (%) (A549 cells [5]; PI flow cytometry): 45.7% | G2-M (%) (A549 cells [5]; PI flow cytometry): 1.01% | S % (A549 cells [5]; PI flow cytometry): 25.8% | G1 % (K562 cells): 45.1% | G2 % (K562 cells): 7.6% | S % (K562 cells): 47.3%
